One series relates to Helicobacter pylori. Also noted: method as in PMID 16377035. Particulars: cited from earlier work.
A further series deals with S. aureus TISTR 2392. Briefly: Antibacterial microbroth dilution MIC, S. aureus. In kind it is cell-based. Particulars: Staphylococcus aureus, TISTR2392; Gram-positive; microbroth dilution, 37 °C, 24 h; read-out: MIC S. aureus. On the procedure: (§1) The antibacterial activities of coumarin derivatives 10, 12, 13, 14a–g, and 15 were evaluated against five reference standard bacteria, both gram-positive and gram-negative: B. cereus TISTR 2372, B. subtilis TISTR 001, S. aureus TISTR 2392, E. coli TISTR 073, and S. typhimurium TISTR 2519, using a standard microbroth dilution method.
(§2) The MIC values of coumarin derivatives 10, 12, 13, 14a–g, and 15 were determined through the microbroth dilution method in 96-well microtitre plates. The bacterial cultures were prepared from overnight cultures on nutrient broth (NB) at 37 °C for 24 h by diluting in NB compared with 0.5 McFarland. Coumarin derivatives 10, 12, 13, 14a–g, and 15 (5000 µg/mL) were prepared in EtOH, and 128 µg/mL of these were added to the first wells. Two-fold serial dilutions were prepared, and final concentrations of 128 to 1 µg/mL were achieved. The positive controls for penicillin G were determined, with the final concentrations from 128 to 1 µg/mL. In addition, an extra row of EtOH was used as a vehicle control to determine its possible inhibitory activity. Finally, 10 µL of bacterial suspension was added to each well. After the bacteria were incubated at 37 °C for 24 h, the microtitre plates were visually examined for bacterial growth; the growth rate was monitored at the optical density at 600 nm with a microplate reader.

The test system of series [1] is S. typhimurium TISTR 2519. Briefly: Antibacterial microbroth dilution MIC, S. typhimurium. Type of series: cell-based. Particulars: Salmonella enterica; Gram-negative; microbroth dilution, 37 °C, 24 h; read-out: MIC S. typhimurium. On the procedure: as §1, §2
For orientation: Broth dilution looks for growth in wells or tubes with falling amounts of substance.

The test system of a further series is HeLa cancer cell line. The series can be described thus: MTT cell viability assay, HeLa. Type of series: cell-based. Particulars: Homo sapiens, HeLa, 24 h, cancer cell line; MTT assay, 24 h treatment; read-out: IC50 HeLa. On the procedure: (§3) The cell viability assays of coumarin derivatives 10, 12, 13, 14a–g, and 15 were conducted against three cancer cell lines (HepG2, HeLa, and MDA-MB-231) and one normal cell line (LLC-MK2) using an MTT assay.
(§4) Stock solutions of coumarin derivatives 10, 12a, 13, 14a–g, and 15 were prepared in EtOH at a concentration of 5000 µg/mL. Prior to use, the stock solutions were further diluted to 128 µg/mL and added to the first wells. Two-fold serial dilutions were prepared, and final concentrations of 128 to 1 µg/mL in culture medium were achieved. Cells were seeded at a density of 5 × 10^4 cells/well in a 96-well plate and incubated for 16 h, followed by treatment with the test compounds. The control culture contained the carrier solvent of 2.5% dimethyl sulfoxide (DMSO). After 24 h, HepG2, HeLa, MDA-MB-231, and LLC-MK2 cells were then incubated with MTT (500 μg/mL) for 4 h. Then, DMSO was added to dissolve the blue formazan crystals formed, which were formed as a result of the action of cellular oxidoreductase enzymes on the MTT dye. Finally, the optical density at 450 nm was determined using a microplate reader.

The next series concerns B. cereus TISTR 2372. The series can be described thus: Antibacterial microbroth dilution MIC, B. cereus. In kind it is cell-based. Particulars: Bacillus cereus, TISTR2372; Gram-positive; microbroth dilution, 37 °C, 24 h; read-out: MIC B. cereus. On the procedure: as §1, §2
Another series deals with HepG2 cancer cell line. Briefly: MTT cell viability assay, HepG2. Type of series: cell-based. Particulars: Homo sapiens, HepG2, 24 h, cancer cell line; MTT assay, 24 h treatment; read-out: IC50 HepG2. On the procedure: as §3, §4
(In general: Tetrazolium dyes change colour on reduction, which living cells bring about.)

Another series concerns E. coli TISTR 073. The series can be described thus: Antibacterial microbroth dilution MIC, E. coli. Particulars: Escherichia coli, TISTR073; Gram-negative; microbroth dilution, 37 °C, 24 h; read-out: MIC E. coli. In kind it is cell-based. On the procedure: as §1, §2
For a further series, the system named is B. subtilis TISTR 001. Briefly: Antibacterial microbroth dilution MIC, B. subtilis. In kind it is cell-based. Particulars: Bacillus subtilis, TISTR001; Gram-positive; microbroth dilution, 37 °C, 24 h; read-out: MIC B. subtilis. On the procedure: as §1, §2
The next series concerns LLC-MK2 normal cell line. Briefly: MTT cell viability assay, LLC-MK2 normal cells. The following applies: Macaca mulatta, LLC-MK2; normal cell line; MTT assay, 24 h treatment; read-out: IC50 LLC-MK2. Type of series: cell-based. On the procedure: as §3, §4

≈ marks a conversion by molar mass, not a printed value.

For the compound `O=C(O)c1ccc(NC(=O)c2cc3ccccc3oc2=O)cc1` [4a], the “MIC H. pylori” value in the series on Helicobacter pylori is listed as 1 µg/mL (≈ 3.23 µM).
Usually MIC stands for the smallest concentration in the dilution series that meets the test's criterion for growth inhibition. One may read the IC50 as the point on the concentration scale where inhibition reaches its midpoint. The melting point is the temperature, or range, at which the solid turns liquid. Consider `CC(C)=CCc1cc2cc(C(=O)O)c(=O)oc2cc1O` [compound 13, 3-carboxy-6-(3-methyl-2-butenyl)-7-hydroxy-coumarin], for which the melting point fell in the range of 237 to 238 °C. Moreover, in the series on S. aureus TISTR 2392, the MIC is 64 µg/mL (≈ 233 µM). For the same compound, the MIC in series [1] is greater than 128 µg/mL. Further, the IC50 with HeLa cancer cell line is 26.4 µM. The MIC in the series with B. cereus TISTR 2372 was 32 µg/mL (≈ 117 µM). In the series with HepG2 cancer cell line, the IC50 amounted to 81.7 µM. Besides, the MIC in the series with E. coli TISTR 073 is greater than 128 µg/mL. Besides, the MIC in the series with B. subtilis TISTR 001 was 128 µg/mL (≈ 467 µM). Also, the IC50 in the series with LLC-MK2 normal cell line worked out at 38 µM.

The values are drawn from paper PMC8002271, “Synthesis and Biological Activity Evaluation of Coumarin-3-Carboxamide Derivatives” (Molecules, 2021).
